Structures are written as SMILES.

We go through 49 molecules from patent US7572818B2, “2-pyridylethylbenzamide derivative” (Bayer Cropscience S.A., priority 2002, dated 2009).

The first test relates to Alternaria brassicae. In words: In vivo test of activity on Alternaria brassicae (crucifer black spot) on radish. The conditions noted are these: 250 g/ha, preventive spray 24 h before inoculation. As to the method:
In Vivo Test of Activity on Alternaria brassicae (Crucifer Black Spot)
(§1) An aqueous solution of the active material to be tested is prepared at a concentration of 2 g/l by grinding in solution 1 or solution 2:
(§2) • Water • Tween 80 diluted to 10% in water: 5 μl/mg of active material • Clay in a sufficient amount for active material+clay to equal 100 mg; Solution 2
(§3) Concentrated solution containing surfactants and adjuvants conventionally used: 200 μl/mg of active material.
(§4) The aqueous solution is diluted with water so as to obtain the desired concentration.
Radishes of the Pernot variety are sown in a 50/50 pozzolan/peat substrate and maintained at 18-22° C. The treatment is carried out by spraying the aqueous suspension. The untreated control plants are sprayed with water. 24 hours after treatment, the plants are inoculated by spraying a solution of Alternaria brassicae spores (40 000 spores/ml) originating from a 12-day culture.
The radish plants are then maintained at 18-20° C. in a humid atmosphere. The effectiveness of the products is evaluated relative to the control plants after seven to eight days of incubation.
(§5) The effectiveness of the molecules is estimated, at 500 g/ha, 250 g/ha or 330 ppm, by the percentage of control relative to untreated plants. Under these conditions, good effectiveness is defined as more than 80% effectiveness. Average effectiveness is defined as an effectiveness between 50 and 80%. Poor effectiveness is defined as an effectiveness between 10 and 50% and zero effectiveness is defined as less than 10% effectiveness.
For the molecule `O=C(NCCc1ncc(C(F)(F)F)cc1Cl)c1cccc(C(F)(F)F)c1` [Compound A-28], the “effectiveness (percentage of control relative to untreated plants)” value is listed as “good to average”.

Regarding `O=C(NCCc1ncc(C(F)(F)F)cc1Cl)c1ccccc1[N+](=O)[O-]` [Compound A-29], the “effectiveness (percentage of control relative to untreated plants)” value was “good to average”.

Take `O=C(NCCc1ncc(C(F)(F)F)cc1Cl)c1cc(F)c(F)cc1F` [Compound A-41]: the “effectiveness (percentage of control relative to untreated plants)” value is “good to average”.

Still in this test, the particulars now being: 330 ppm, preventive spray 24 h before inoculation.
Turning to `Cc1ccc(Br)c(C(=O)NCCc2ncc(C(F)(F)F)cc2Cl)c1` [Compound A-134], the “effectiveness (percentage of control relative to untreated plants)” value is recorded as “good to average”.

For `CSc1ccccc1C(=O)NCCc1ncc(C(F)(F)F)cc1Cl` [Compound A-167], the “effectiveness (percentage of control relative to untreated plants)” value was “good to average”.

For `COc1cc(Cl)ccc1C(=O)NCCc1ncc(C(F)(F)F)cc1Cl` [Compound A-87], the “effectiveness (percentage of control relative to untreated plants)” value is “good to average”.

Turning to `O=C(NCCc1ncc(C(F)(F)F)cc1Cl)c1ccc(Cl)c(F)c1Cl` [Compound A-125], the “effectiveness (percentage of control relative to untreated plants)” value was “good to average”.

`O=C(NCCc1c(Cl)cc(C(F)(F)F)c[n+]1[O-])c1ccccc1C(F)(F)F` [Compound B-1]: the “effectiveness (percentage of control relative to untreated plants)” value is “good to average”.

Turning to `Cc1cccc(C(=O)NCCc2ncc(C(F)(F)F)cc2Cl)c1N` [Compound A-194], the “effectiveness (percentage of control relative to untreated plants)” value is given as “good to average”.

As for `O=C(NCCc1ncc(C(F)(F)F)cc1Cl)c1c(C(F)(F)F)ccc(Cl)c1F` [Compound A-75], the “effectiveness (percentage of control relative to untreated plants)” value was “good to average”.

As for `COc1cc(I)c(C(=O)NCCc2ncc(C(F)(F)F)cc2Cl)cc1OC` [Compound A-189], the “effectiveness (percentage of control relative to untreated plants)” value was “good to average”.

On to `O=C(NCCc1ncc(C(F)(F)F)cc1Cl)c1cc(I)ccc1Cl` [Compound A-185], for which the “effectiveness (percentage of control relative to untreated plants)” value is “good to average”.

As for `CS(=O)(=O)c1cc(C(F)(F)F)ccc1C(=O)NCCc1ncc(C(F)(F)F)cc1Cl` [Compound A-139], the “effectiveness (percentage of control relative to untreated plants)” value is “good to average”.

In the case of `Cc1cccc(C(=O)NCCc2ncc(C(F)(F)F)cc2Cl)c1Br` [Compound A-180], the “effectiveness (percentage of control relative to untreated plants)” value is on record as “good to average”.

`CS(=O)(=O)c1ccc(C(=O)NCCc2ncc(C(F)(F)F)cc2Cl)c(Cl)c1O` [Compound A-136]: the “effectiveness (percentage of control relative to untreated plants)” value is on record as “good to average”.

As to `Cc1ccc(F)cc1C(=O)NCCc1ncc(C(F)(F)F)cc1Cl` [Compound A-186], the “effectiveness (percentage of control relative to untreated plants)” value is “good to average”.

On to `Cc1ccc(C(=O)NCCc2ncc(C(F)(F)F)cc2Cl)c(C)c1` [Compound A-61], for which the “effectiveness (percentage of control relative to untreated plants)” value was “good to average”.

Regarding `COc1ccc(C(C)(C)C)cc1C(=O)NCCc1ncc(C(F)(F)F)cc1Cl` [Compound A-92], the “effectiveness (percentage of control relative to untreated plants)” value was “good to average”.

As to `Cc1c(C(=O)NCCc2ncc(C(F)(F)F)cc2Cl)cccc1[N+](=O)[O-]` [Compound A-77], the “effectiveness (percentage of control relative to untreated plants)” value is on record as “good to average”.

Regarding `O=C(NCCc1ncc(C(F)(F)F)cc1Cl)c1cc(Cl)ccc1Cl` [Compound A-49], the “effectiveness (percentage of control relative to untreated plants)” value was “good to average”.

In the case of `Cc1ccc(C)c(C(=O)NCCc2ncc(C(F)(F)F)cc2Cl)c1` [Compound A-62], the “effectiveness (percentage of control relative to untreated plants)” value is reported as “good to average”.

Regarding `O=C(NCCc1ncc(C(F)(F)F)cc1Cl)c1ccc(Cl)cc1Br` [Compound A-110], the “effectiveness (percentage of control relative to untreated plants)” value is listed as “good to average”.

Turning to `CSc1c(F)ccc(C(=O)NCCc2ncc(C(F)(F)F)cc2Cl)c1F` [Compound A-165], the “effectiveness (percentage of control relative to untreated plants)” value is recorded as “good to average”.

On to `CSc1ccc(C(=O)NCCc2ncc(C(F)(F)F)cc2Cl)c(C)c1` [Compound A-142], for which the “effectiveness (percentage of control relative to untreated plants)” value is “good to average”.

Regarding `O=C(NCCc1ncc(C(F)(F)F)cc1Cl)c1ccc(Cl)c(C(F)(F)F)c1` [Compound A-147], the “effectiveness (percentage of control relative to untreated plants)” value is on record as “good to average”.

Consider `O=C(NCCc1ncc(C(F)(F)F)cc1Cl)c1cc(F)c(F)cc1Cl` [Compound A-107], for which the “effectiveness (percentage of control relative to untreated plants)” value is “good to average”.

For the molecule `CCOc1ccccc1C(=O)NCCc1ncc(C(F)(F)F)cc1Cl` [Compound A-86], the “effectiveness (percentage of control relative to untreated plants)” value is “good to average”.

Consider `Cc1cccc(C(=O)NCCc2ncc(C(F)(F)F)cc2Cl)c1I` [Compound A-179], for which the “effectiveness (percentage of control relative to untreated plants)” value is listed as “good to average”.

As to `O=C(NCCc1ncc(C(F)(F)F)cc1Cl)c1cc(Br)ccc1I` [Compound A-183], the “effectiveness (percentage of control relative to untreated plants)” value is given as “good to average”.

In the case of `Cc1ccc(I)c(C(=O)NCCc2ncc(C(F)(F)F)cc2Cl)c1` [Compound A-177], the “effectiveness (percentage of control relative to untreated plants)” value is on record as “good to average”.

With `O=C(NCCc1ncc(C(F)(F)F)cc1Cl)c1cccc(F)c1Br` [Compound A-122], the “effectiveness (percentage of control relative to untreated plants)” value is “good to average”.

`CCc1cc(Br)ccc1C(=O)NCCc1ncc(C(F)(F)F)cc1Cl` [Compound A-152]: the “effectiveness (percentage of control relative to untreated plants)” value is “good to average”.

Regarding `Cc1cc(C(=O)NCCc2ncc(C(F)(F)F)cc2Cl)c(Cl)c(C)c1F` [Compound A-123], the “effectiveness (percentage of control relative to untreated plants)” value is “good to average”.

As to `Cc1c(C(=O)NCCc2ncc(C(F)(F)F)cc2Cl)ccc(Cl)c1F` [Compound A-162], the “effectiveness (percentage of control relative to untreated plants)” value was “good to average”.

Turning to `CSc1cc(Cl)ccc1C(=O)NCCc1ncc(C(F)(F)F)cc1Cl` [Compound A-127], the “effectiveness (percentage of control relative to untreated plants)” value is on record as “good to average”.

As for `O=C(NCCc1ncc(C(F)(F)F)cc1Cl)c1ccc(C(F)(F)F)cc1C(F)(F)F` [Compound A-74], the “effectiveness (percentage of control relative to untreated plants)” value is listed as “good to average”.

Take `Cc1ccc(F)c(C(=O)NCCc2ncc(C(F)(F)F)cc2Cl)c1Cl` [Compound A-124]: the “effectiveness (percentage of control relative to untreated plants)” value is listed as “good to average”.

In the case of `O=C(NCCc1ncc(C(F)(F)F)cc1Cl)c1ccc(I)c(Br)c1` [Compound A-158], the “effectiveness (percentage of control relative to untreated plants)” value is recorded as “good to average”.

Consider `O=C(NCCc1ncc(C(F)(F)F)cc1Cl)c1cc(I)c(O)c(I)c1` [Compound A-169], for which the “effectiveness (percentage of control relative to untreated plants)” value was “good to average”.

Take `CS(=O)(=O)c1cc(Cl)ccc1C(=O)NCCc1ncc(C(F)(F)F)cc1Cl` [Compound A-128]: the “effectiveness (percentage of control relative to untreated plants)” value is given as “good to average”.

On to `CSc1ccc(C(=O)NCCc2ncc(C(F)(F)F)cc2Cl)c(Br)c1` [Compound A-150], for which the “effectiveness (percentage of control relative to untreated plants)” value was “good to average”.

With `COc1cc(Cl)c(C(=O)NCCc2ncc(C(F)(F)F)cc2Cl)cc1OC` [Compound A-181], the “effectiveness (percentage of control relative to untreated plants)” value was “good to average”.

Turning to `O=C(NCCc1ncc(C(F)(F)F)cc1Cl)c1cc(Cl)ccc1Br` [Compound A-100], the “effectiveness (percentage of control relative to untreated plants)” value was “good to average”.

As to `O=C(NCCc1ncc(C(F)(F)F)cc1Cl)c1cc(Cl)ccc1I` [Compound A-188], the “effectiveness (percentage of control relative to untreated plants)” value is reported as “good to average”.

Consider `COc1cc([N+](=O)[O-])ccc1C(=O)NCCc1ncc(C(F)(F)F)cc1Cl` [Compound A-171], for which the “effectiveness (percentage of control relative to untreated plants)” value is recorded as “good to average”.

With `Cc1cc(C(=O)NCCc2ncc(C(F)(F)F)cc2Cl)c([N+](=O)[O-])cc1C` [Compound A-156], the “effectiveness (percentage of control relative to untreated plants)” value is “good to average”.

Take `O=C(NCCc1ncc(C(F)(F)F)cc1Cl)c1ccc(Cl)c(Br)c1` [Compound A-141]: the “effectiveness (percentage of control relative to untreated plants)” value is given as “good to average”.

Take `CSc1ccc(Cl)c(C(=O)NCCc2ncc(C(F)(F)F)cc2Cl)c1` [Compound A-99]: the “effectiveness (percentage of control relative to untreated plants)” value is given as “good to average”.

The same test, now with this note: 500 g/ha, preventive spray 24 h before inoculation.
As to `COc1cc(OC)cc(C(=O)NCCc2ncc(C(F)(F)F)cc2Cl)c1` [Compound A-14], the “effectiveness (percentage of control relative to untreated plants)” value was “good to average”.

Another test concerns Pyrenophora teres. Put plainly: In vivo test of activity on Pyrenophora teres (barley net blotch). To be noted: 330 ppm, preventive spray 24 h before inoculation. As to the method: In Vivo Test of Activity on Pyrenophora teres (Barley Net Blotch)
as §1, §2, §3, §4
Barley plants of the Express variety are sown in a 50/50 pozzolan/peat substrate and maintained at 12° C. The treatment is carried out at the 1-leaf stage (10 cm) by spraying the aqueous suspension. The untreated control plants are sprayed with water.
24 hours after treatment, the plants are inoculated by spraying a solution of Pyrenophora teres spores (10 000 spores/ml) originating from a 10-day culture.
The barley plants are then maintained at 18° C. in a humid atmosphere. The effectiveness of the products is evaluated relative to the control plants after eight to fifteen days of incubation.
as §5
Regarding `Cc1ccc(Br)c(C(=O)NCCc2ncc(C(F)(F)F)cc2Cl)c1` [Compound A-134], the “effectiveness (percentage of control relative to untreated plants)” value is “good to average”.

In the case of `CSc1ccccc1C(=O)NCCc1ncc(C(F)(F)F)cc1Cl` [Compound A-167], the “effectiveness (percentage of control relative to untreated plants)” value is on record as “good to average”.

Consider `COc1cc(Cl)ccc1C(=O)NCCc1ncc(C(F)(F)F)cc1Cl` [Compound A-87], for which the “effectiveness (percentage of control relative to untreated plants)” value is reported as “good to average”.

With `O=C(NCCc1ncc(C(F)(F)F)cc1Cl)c1ccc(Cl)c(F)c1Cl` [Compound A-125], the “effectiveness (percentage of control relative to untreated plants)” value is reported as “good to average”.

As for `O=C(NCCc1c(Cl)cc(C(F)(F)F)c[n+]1[O-])c1ccccc1C(F)(F)F` [Compound B-1], the “effectiveness (percentage of control relative to untreated plants)” value is “good to average”.

Consider `Cc1ccc(C(=O)NCCc2ncc(C(F)(F)F)cc2Cl)c(C)c1` [Compound A-61], for which the “effectiveness (percentage of control relative to untreated plants)” value is “good to average”.
